Reference: patent publication US11377425B1, “Small molecule modulators of IL-17” (LEO Pharma A/S, priority 2018, dated 2022)
pEC50: −log10 of the molar value.

Target: T1, human IL-17AA (Homo sapiens, UniProt Q16552)
T1 construct: host or cells: HEK (human embryonic kidney) cells
T1 sequence (Q16552 24-155): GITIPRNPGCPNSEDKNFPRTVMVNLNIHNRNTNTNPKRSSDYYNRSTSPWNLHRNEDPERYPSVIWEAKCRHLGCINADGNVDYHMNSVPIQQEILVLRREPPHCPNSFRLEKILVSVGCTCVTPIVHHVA
Assay: IL-8 release assay in human epithelial keratinocytes adult (HEKa)
Format: cell-based
Conditions: HEKa cells, 3 ng/mL HEK-human IL-17AA + 10 ng/mL human TNFalpha; read-out: Rel EC50 IL-8 release assay
Summary of the method: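 IL-8 release, quantified by HTRF and normalized to controls, reports IL-17 signaling in HEKa cells treated with compound plus final 3 ng/mL IL-17AA (HEK-derived) and 10 ng/mL TNF-alpha for 68-72 h; TNF-alpha-only wells set 100% inhibition. Four-parameter logistic fits (r^2>0.9) give relative IC50 and Emax; PrestoBlue flags cytotoxicity.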

pEC50	SMILES
> 7.00	Cc1n[nH]c(C)c1-c1ccc(NC(=O)[C@@H](NC(=O)c2ccnn2C(C)C)[C@@H]2CC3(CC3)CCC2(F)F)cc1 [Example 181, N-[(1S)-1-[(7S)-6,6-difluorospiro[2.5]octan-7-yl]-2-[4-(3,5-dimethyl-1H-pyrazol-4-yl)anilino]-2-oxo-ethyl]-2-isopropyl-pyrazole-3-carboxamide]
6.00 to 7.00	Cc1n[nH]c(C)c1-c1ccc(NC(=O)[C@@H](NC(=O)c2ccnn2CCO)C(C2CC2)C2CC2)cc1 [Example 183, N-[(1S)-1-(dicyclopropylmethyl)-2-[4-(3,5-dimethyl-1H-pyrazol-4-yl)anilino]-2-oxo-ethyl]-2-(2-hydroxyethyl)pyrazole-3-carboxamide]
> 7.00	Cc1n[nH]c(C)c1-c1ccc(NC(=O)[C@@H](NC(=O)c2ccnn2CC(F)(F)F)C(C2CC2)C2CC2)cc1 [Example 184, N-[(1S)-1-(dicyclopropylmethyl)-2-[4-(3,5-dimethyl-1H-pyrazol-4-yl)anilino]-2-oxo-ethyl]-2-(2,2,2-trifluoroethyl)pyrazole-3-carboxamide]
> 7.00	Cc1n[nH]c(C)c1-c1ccc(NC(=O)[C@@H](NC(=O)c2ccnn2CCC(C)O)C(C2CC2)C2CC2)cc1 (stereo partly drawn) [Example 185, N-[(1S)-1-(dicyclopropylmethyl)-2-[4-(3,5-dimethyl-1H-pyrazol-4-yl)anilino]-2-oxo-ethyl]-2-(3-hydroxybutyl)pyrazole-3-carboxamide]
> 7.00	Cc1n[nH]c(C)c1-c1ccc(NC(=O)[C@@H](NC(=O)c2ccnn2CC(C)(F)F)C(C2CC2)C2CC2)cc1 [Example 186, N-[(1S)-1-(dicyclopropylmethyl)-2-[4-(3,5-dimethyl-1H-pyrazol-4-yl)anilino]-2-oxo-ethyl]-2-(2,2-difluoropropyl)pyrazole-3-carboxamide]
> 7.00	Cc1n[nH]c(C)c1-c1ccc(NC(=O)[C@@H](NC(=O)c2ccnn2C(C)C(F)F)C(C2CC2)C2CC2)cc1 (stereo partly drawn) [Example 189, N-[(1S)-1-(dicyclopropylmethyl)-2-[4-(3,5-dimethyl-1H-pyrazol-4-yl)anilino]-2-oxo-ethyl]-2-(2,2-difluoro-1-methyl-ethyl)pyrazole-3-carboxamide]
6.00 to 7.00	Cc1n[nH]c(C)c1-c1ccc(NC(=O)[C@@H](NC(=O)c2ccnn2C)C(C)C(C)C)cc1 (stereo partly drawn) [Example 197]
< 6.00	Cc1n[nH]c(C)c1-c1ccc(NC(=O)[C@@H](NC(=O)c2ccn(C)n2)C(C2CC2)C2CC2)cc1 [Example 198, N-[(1S)-1-(dicyclopropylmethyl)-2-[4-(3,5-dimethyl-1H-pyrazol-4-yl)anilino]-2-oxo-ethyl]-1-methyl-pyrazole-3-carboxamide]
< 6.00	CCn1ccc(C(=O)N[C@H](C(=O)Nc2ccc(-c3c(C)n[nH]c3C)cc2)C(C2CC2)C2CC2)n1 [Example 199, N-[(1S)-1-(dicyclopropylmethyl)-2-[4-(3,5-dimethyl-1H-pyrazol-4-yl)anilino]-2-oxo-ethyl]-1-ethyl-pyrazole-3-carboxamide]
> 7.00	Cc1n[nH]c(C)c1-c1ccc(NC(=O)[C@@H](NC(=O)c2ccnn2C(C)C)C2C3CC4CC(C3)CC2C4)cc1 (stereo partly drawn) [Example 200, N-[(1S)-1-(2-adamantyl)-2-[4-(3,5-dimethyl-1H-pyrazol-4-yl)anilino]-2-oxo-ethyl]-2-isopropyl-pyrazole-3-carboxamide]
> 7.00	CCn1nccc1C(=O)N[C@H](C(=O)Nc1ccc(-c2c(C)n[nH]c2C)cc1)C1C2CC3CC(C2)CC1C3 (stereo partly drawn) [Example 201, N-[(1S)-1-(2-adamantyl)-2-[4-(3,5-dimethyl-1H-pyrazol-4-yl)anilino]-2-oxo-ethyl]-2-ethyl-pyrazole-3-carboxamide]
> 7.00	Cc1n[nH]c(C)c1-c1ccc(NC(=O)[C@@H](NC(=O)c2ccnn2C)C2C3CC4CC(C3)CC2C4)cc1 (stereo partly drawn) [Example 202, N-[(1S)-1-(2-adamantyl)-2-[4-(3,5-dimethyl-1H-pyrazol-4-yl)anilino]-2-oxo-ethyl]-2-methyl-pyrazole-3-carboxamide]
> 7.00	Cc1n[nH]c(C)c1-c1ccc(NC(=O)[C@@H](NC(=O)c2ccnn2CCC(C)O)[C@H]2CC[C@H](C)CC2)cc1 (stereo partly drawn) [Example 203, N-[(1S)-2-[4-(3,5-dimethyl-1H-pyrazol-4-yl)anilino]-1-(trans-4-methylcyclohexyl)-2-oxo-ethyl]-2-(3-hydroxybutyl)pyrazole-3-carboxamide]
> 7.00	COCCn1nccc1C(=O)N[C@H](C(=O)Nc1ccc(-c2c(C)n[nH]c2C)cc1)C(C1CC1)C1CC1 [Example 206, N-[(1S)-1-(dicyclopropylmethyl)-2-[4-(3,5-dimethyl-1H-pyrazol-4-yl)anilino]-2-oxo-ethyl]-2-(2-methoxyethyl)pyrazole-3-carboxamide]
6.00 to 7.00	Cc1n[nH]c(C)c1-c1ccc(NC(=O)[C@@H](NC(=O)c2ccnn2CC#N)C(C2CC2)C2CC2)cc1 [Example 207, 2-(cyanomethyl)-N-[(1S)-1-(dicyclopropylmethyl)-2-[4-(3,5-dimethyl-1H-pyrazol-4-yl)anilino]-2-oxo-ethyl]pyrazole-3-carboxamide]
> 7.00	Cc1n[nH]c(C)c1-c1ccc(NC(=O)[C@@H](NC(=O)c2ccnn2CCCO)[C@H]2CC[C@H](C)CC2)cc1 [Example 208, N-[(1S)-2-[4-(3,5-dimethyl-1H-pyrazol-4-yl)anilino]-1-(trans-4-methylcyclohexyl)-2-oxo-ethyl]-2-(3-hydroxypropyl)pyrazole-3-carboxamide]
> 7.00	Cc1n[nH]c(C)c1-c1ccc(NC(=O)[C@@H](NC(=O)c2ccnn2CCCO)[C@@H]2CC(C)(C)CCC2(F)F)cc1 [Example 209, N-[(1S)-1-[(1S)-2,2-difluoro-5,5-dimethyl-cyclohexyl]-2-[4-(3,5-dimethyl-1H-pyrazol-4-yl)anilino]-2-oxo-ethyl]-2-(3-hydroxypropyl)pyrazole-3-carboxamide]
> 7.00	Cc1n[nH]c(C)c1-c1ccc(NC(=O)[C@@H](NC(=O)c2ccnn2C(C)C)[C@@H]2CC(C)(C)CCC2(F)F)cc1 [Example 212, N-[(1S)-1-[(1S)-2,2-difluoro-5,5-dimethyl-cyclohexyl]-2-[4-(3,5-dimethyl-1H-pyrazol-4-yl)anilino]-2-oxo-ethyl]-2-isopropyl-pyrazole-3-carboxamide]
> 7.00	CCn1nccc1C(=O)N[C@H](C(=O)Nc1ccc(-c2c(C)n[nH]c2C)cc1)[C@@H]1CC(C)(C)CCC1(F)F [Example 213, N-[(1S)-1-[(1S)-2,2-difluoro-5,5-dimethyl-cyclohexyl]-2-[4-(3,5-dimethyl-1H-pyrazol-4-yl)anilino]-2-oxo-ethyl]-2-ethyl-pyrazole-3-carboxamide]
> 7.00	Cc1n[nH]c(C)c1-c1ccc(NC(=O)[C@@H](NC(=O)c2ccnn2C)[C@@H]2CC(C)(C)CCC2(F)F)cc1 [Example 214, N-[(1S)-1-[(1S)-2,2-difluoro-5,5-dimethyl-cyclohexyl]-2-[4-(3,5-dimethyl-1H-pyrazol-4-yl)anilino]-2-oxo-ethyl]-2-methyl-pyrazole-3-carboxamide]
> 7.00	Cc1n[nH]c(C)c1-c1ccc(NC(=O)[C@@H](NC(=O)c2ccnn2CCC(F)F)C(C2CC2)C2CC2)cc1 [Example 215, N-[(1S)-1-(dicyclopropylmethyl)-2-[4-(3,5-dimethyl-1H-pyrazol-4-yl)anilino]-2-oxo-ethyl]-2-(3,3-difluoropropyl)pyrazole-3-carboxamide]
